Legend:
Assay in all cases: biochemical
Parameters in all cases: Upstate KinaseProfiler in vitro kinase activity assay, per cent of DMSO control
Details in all cases: read-out: Activity (% of Control)
[1] = biological target: T1, Abl(T315I)(h) (Homo sapiens, UniProt P00519, T315I)
T1 construct: gene ABL1
In short: (§1)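 Profiling done with Upstate KinaseProfiler service across 100 kinases, resveratrol tested at 20 μM; activity expressed relative to control.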

[2] = biological target: T2, CDK5/p25(h) (Homo sapiens, UniProt Q00535)
T2 construct: p25
In short: as §1

[3] = biological target: T3, CHK1(h) (Homo sapiens, UniProt O14757)
T3 construct: gene CHEK1
In short: as §1

[4] = biological target: T4, CHK2(h) (Homo sapiens, UniProt O96017)
T4 construct: gene CHEK2
In short: as §1

[5] = biological target: T5, IGF-1R(h) (Homo sapiens, UniProt P08069)
T5 construct: gene IGF1R
T5 sequence (P08069 whole entry): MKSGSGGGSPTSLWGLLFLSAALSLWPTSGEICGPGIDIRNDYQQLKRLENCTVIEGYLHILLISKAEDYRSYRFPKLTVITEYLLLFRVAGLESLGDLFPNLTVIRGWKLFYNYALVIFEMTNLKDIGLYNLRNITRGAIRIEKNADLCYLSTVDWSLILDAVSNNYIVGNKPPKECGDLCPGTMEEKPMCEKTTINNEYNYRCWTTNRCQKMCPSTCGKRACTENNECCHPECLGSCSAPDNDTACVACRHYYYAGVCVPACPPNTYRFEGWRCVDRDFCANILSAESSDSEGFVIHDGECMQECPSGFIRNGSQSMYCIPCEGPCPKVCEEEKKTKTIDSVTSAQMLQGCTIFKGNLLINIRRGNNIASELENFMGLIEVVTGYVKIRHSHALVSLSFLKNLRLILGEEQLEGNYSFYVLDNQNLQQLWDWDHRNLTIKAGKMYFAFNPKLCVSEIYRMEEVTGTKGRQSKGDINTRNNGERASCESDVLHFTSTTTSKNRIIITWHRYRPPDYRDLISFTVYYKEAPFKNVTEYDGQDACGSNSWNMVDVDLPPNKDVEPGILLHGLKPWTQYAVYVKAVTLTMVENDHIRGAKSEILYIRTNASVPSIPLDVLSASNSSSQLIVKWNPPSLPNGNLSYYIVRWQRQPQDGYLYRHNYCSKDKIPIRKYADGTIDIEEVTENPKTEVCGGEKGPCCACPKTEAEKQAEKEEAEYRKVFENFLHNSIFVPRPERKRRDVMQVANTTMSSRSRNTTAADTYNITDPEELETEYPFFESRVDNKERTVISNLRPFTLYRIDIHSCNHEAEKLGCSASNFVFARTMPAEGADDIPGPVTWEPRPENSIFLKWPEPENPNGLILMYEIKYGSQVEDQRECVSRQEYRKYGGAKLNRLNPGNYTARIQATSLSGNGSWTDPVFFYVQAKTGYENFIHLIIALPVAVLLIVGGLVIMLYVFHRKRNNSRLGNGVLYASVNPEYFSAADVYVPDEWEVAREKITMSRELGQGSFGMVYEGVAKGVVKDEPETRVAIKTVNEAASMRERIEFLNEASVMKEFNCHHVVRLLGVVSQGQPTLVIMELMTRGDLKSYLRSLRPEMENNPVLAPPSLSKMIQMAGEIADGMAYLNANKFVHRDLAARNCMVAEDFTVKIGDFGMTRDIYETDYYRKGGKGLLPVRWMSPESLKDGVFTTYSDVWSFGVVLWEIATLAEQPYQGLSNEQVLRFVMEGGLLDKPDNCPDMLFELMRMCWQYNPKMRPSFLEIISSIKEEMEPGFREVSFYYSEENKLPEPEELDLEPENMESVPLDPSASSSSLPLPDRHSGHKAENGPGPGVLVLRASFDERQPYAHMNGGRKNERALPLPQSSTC
In short: as §1

[6] = biological target: LIMK1(h) (Homo sapiens, UniProt P53667)
In short: as §1

[7] = biological target: T6, MSK1(h) (Homo sapiens, UniProt O75582)
T6 construct: gene RPS6KA5
In short: as §1

[8] = biological target: T7, MST2(h) (Homo sapiens, UniProt Q13188)
T7 construct: gene STK3
In short: as §1

[9] = biological target: Met(h) (Homo sapiens, UniProt P08581)
In short: as §1

[10] = biological target: T8, PDGFRß(h) (Homo sapiens, UniProt P09619)
T8 construct: gene PDGFRB
In short: as §1

[11] = biological target: T9, Pim-1 (Homo sapiens, UniProt P11309)
T9 construct: gene PIM1
T9 sequence (P11309 whole entry): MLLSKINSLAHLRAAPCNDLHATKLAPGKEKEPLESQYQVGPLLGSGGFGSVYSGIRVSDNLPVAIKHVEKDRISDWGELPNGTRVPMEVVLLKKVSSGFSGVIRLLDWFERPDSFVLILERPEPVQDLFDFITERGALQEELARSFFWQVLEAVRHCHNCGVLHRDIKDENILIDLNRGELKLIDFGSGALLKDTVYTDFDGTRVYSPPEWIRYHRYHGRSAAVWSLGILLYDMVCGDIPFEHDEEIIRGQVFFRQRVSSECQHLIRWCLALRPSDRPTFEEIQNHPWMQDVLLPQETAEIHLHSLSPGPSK
In short: as §1

[12] = biological target: Plk3(h) (Homo sapiens, UniProt Q9H4B4)
In short: as §1

[13] = biological target: T10, Ros(h) (Homo sapiens, UniProt P08922)
T10 construct: gene ROS1
T10 sequence (P08922 whole entry): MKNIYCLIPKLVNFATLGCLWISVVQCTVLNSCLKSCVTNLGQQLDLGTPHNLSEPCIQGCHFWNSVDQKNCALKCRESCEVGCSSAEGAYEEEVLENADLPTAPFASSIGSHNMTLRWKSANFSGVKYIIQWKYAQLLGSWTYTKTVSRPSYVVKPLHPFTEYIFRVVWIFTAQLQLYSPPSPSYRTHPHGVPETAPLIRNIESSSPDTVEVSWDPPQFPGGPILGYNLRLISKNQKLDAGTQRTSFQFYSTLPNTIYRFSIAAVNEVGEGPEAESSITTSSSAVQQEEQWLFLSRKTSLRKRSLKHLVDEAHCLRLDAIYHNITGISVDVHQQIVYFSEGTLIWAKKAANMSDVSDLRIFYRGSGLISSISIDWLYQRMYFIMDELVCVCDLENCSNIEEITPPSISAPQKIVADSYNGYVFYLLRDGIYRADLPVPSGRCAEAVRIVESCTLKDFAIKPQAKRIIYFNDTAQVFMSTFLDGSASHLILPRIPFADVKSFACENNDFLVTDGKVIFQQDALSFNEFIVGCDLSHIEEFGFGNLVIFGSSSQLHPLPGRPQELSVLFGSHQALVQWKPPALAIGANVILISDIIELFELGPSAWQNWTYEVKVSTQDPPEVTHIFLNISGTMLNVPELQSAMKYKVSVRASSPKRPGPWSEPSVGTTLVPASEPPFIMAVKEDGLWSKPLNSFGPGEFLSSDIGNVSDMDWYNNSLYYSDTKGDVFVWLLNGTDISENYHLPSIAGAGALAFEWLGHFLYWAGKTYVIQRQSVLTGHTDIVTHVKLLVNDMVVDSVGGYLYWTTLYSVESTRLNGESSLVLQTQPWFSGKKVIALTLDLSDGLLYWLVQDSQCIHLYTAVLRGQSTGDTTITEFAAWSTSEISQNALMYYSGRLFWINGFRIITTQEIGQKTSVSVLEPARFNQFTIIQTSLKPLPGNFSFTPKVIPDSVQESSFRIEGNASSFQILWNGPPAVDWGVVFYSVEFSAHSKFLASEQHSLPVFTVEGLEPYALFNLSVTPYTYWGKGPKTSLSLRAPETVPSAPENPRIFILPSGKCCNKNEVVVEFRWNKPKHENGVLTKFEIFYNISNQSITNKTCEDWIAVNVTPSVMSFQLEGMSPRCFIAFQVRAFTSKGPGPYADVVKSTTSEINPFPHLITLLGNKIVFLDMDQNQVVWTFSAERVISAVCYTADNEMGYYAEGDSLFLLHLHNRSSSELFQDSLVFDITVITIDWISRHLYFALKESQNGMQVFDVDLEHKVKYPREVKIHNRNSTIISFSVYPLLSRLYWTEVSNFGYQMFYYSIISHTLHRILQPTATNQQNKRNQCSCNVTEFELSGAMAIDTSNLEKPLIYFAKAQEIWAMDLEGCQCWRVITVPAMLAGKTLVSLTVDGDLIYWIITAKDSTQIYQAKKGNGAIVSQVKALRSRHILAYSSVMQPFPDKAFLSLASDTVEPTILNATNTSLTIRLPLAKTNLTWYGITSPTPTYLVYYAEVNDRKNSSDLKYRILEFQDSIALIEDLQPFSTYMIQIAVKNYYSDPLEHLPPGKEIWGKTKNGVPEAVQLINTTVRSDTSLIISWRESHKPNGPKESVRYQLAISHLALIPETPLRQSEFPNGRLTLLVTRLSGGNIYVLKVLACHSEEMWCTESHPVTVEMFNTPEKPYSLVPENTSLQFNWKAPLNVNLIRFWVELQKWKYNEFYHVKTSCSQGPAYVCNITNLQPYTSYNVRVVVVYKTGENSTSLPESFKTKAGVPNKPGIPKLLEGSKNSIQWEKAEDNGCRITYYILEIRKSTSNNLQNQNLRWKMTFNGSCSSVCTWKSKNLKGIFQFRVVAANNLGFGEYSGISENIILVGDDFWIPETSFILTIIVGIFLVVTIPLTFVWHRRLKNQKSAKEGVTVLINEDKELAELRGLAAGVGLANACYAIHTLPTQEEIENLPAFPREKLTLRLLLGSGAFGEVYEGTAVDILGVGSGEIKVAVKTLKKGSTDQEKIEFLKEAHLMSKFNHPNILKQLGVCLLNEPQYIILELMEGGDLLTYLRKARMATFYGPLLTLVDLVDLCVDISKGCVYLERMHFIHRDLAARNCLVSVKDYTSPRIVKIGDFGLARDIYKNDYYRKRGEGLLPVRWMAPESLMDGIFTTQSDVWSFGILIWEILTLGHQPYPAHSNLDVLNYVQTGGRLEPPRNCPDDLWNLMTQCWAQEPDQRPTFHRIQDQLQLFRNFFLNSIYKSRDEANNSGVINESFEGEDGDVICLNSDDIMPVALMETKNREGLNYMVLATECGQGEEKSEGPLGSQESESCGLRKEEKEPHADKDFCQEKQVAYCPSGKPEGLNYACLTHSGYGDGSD
In short: as §1

[14] = biological target: T11, SAPK2a(h) (Homo sapiens, UniProt Q16539)
T11 construct: gene MAPK14
T11 sequence (Q16539 whole entry): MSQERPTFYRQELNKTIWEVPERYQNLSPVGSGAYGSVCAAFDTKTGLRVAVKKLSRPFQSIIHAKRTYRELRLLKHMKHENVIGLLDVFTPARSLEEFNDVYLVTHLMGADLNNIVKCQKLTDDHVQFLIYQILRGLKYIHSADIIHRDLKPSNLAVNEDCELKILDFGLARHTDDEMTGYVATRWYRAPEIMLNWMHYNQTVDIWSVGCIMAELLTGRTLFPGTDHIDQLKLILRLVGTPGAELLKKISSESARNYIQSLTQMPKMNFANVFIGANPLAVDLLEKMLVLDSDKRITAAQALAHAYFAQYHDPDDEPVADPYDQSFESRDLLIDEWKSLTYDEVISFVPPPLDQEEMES
In short: as §1

[15] = biological target: SGK2(h) (Homo sapiens, UniProt Q9HBY8)
In short: as §1

[16] = biological target: T12, TAK1(h) (Homo sapiens, UniProt O43318)
T12 construct: gene MAP3K7
In short: as §1

[17] = biological target: T13, cKit(h) (Homo sapiens, UniProt P10721)
T13 construct: gene KIT
In short: as §1

[18] = biological target: T14, cSRC(h) (Homo sapiens, UniProt P12931)
T14 construct: gene SRC
T14 sequence (P12931 whole entry): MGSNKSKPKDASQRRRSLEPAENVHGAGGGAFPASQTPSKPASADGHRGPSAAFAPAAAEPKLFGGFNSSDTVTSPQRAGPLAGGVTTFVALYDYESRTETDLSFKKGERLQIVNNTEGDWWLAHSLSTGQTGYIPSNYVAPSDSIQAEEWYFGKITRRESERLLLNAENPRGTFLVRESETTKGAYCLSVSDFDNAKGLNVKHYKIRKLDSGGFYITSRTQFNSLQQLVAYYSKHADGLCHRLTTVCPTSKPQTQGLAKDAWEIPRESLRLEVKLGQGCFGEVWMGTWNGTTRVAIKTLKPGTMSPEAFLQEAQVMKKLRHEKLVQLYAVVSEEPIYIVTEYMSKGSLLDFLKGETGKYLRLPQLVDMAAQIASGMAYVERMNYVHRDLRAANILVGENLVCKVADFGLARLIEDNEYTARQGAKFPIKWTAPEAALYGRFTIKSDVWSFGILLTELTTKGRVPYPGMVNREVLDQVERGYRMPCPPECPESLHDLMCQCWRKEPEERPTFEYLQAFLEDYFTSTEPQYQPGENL
In short: as §1

Structure (SMILES): Oc1ccc(/C=C/c2cc(O)cc(O)c2)cc1 [Res, resveratrol]
- remaining activity at 20 µM [1]: 100 ± 2%
- remaining activity at 20 µM [2]: 64 ± 4%
- remaining activity at 20 µM [3]: 95 ± 2%
- remaining activity at 20 µM [4]: 59 ± 6%
- remaining activity at 20 µM [5]: 75%
- remaining activity at 20 µM [6]: 84 ± 4%
- remaining activity at 20 µM [7]: 58 ± 1%
- remaining activity at 20 µM [8]: 73 ± 8%
- remaining activity at 20 µM [9]: 114 ± 5%
- remaining activity at 20 µM [10]: 119 ± 2%
- remaining activity at 20 µM [11]: 6 ± 2%
- remaining activity at 20 µM [12]: 95 ± 9%
- remaining activity at 20 µM [13]: 102 ± 4%
- remaining activity at 20 µM [14]: 100 ± 4%
- remaining activity at 20 µM [15]: 70 ± 1%
- remaining activity at 20 µM [16]: 105 ± 3%
- remaining activity at 20 µM [17]: 68%
- remaining activity at 20 µM [18]: 61 ± 1%
